In patent US11739100B2, “2,3-dihydro-1h-imidazo{1,2-a}pyrimidin-5-one and this 1,2,3,4-tetrahydropyrimido{1,2-a}pyrimidin-6-one derivatives comprising a substituted morpholine, preparation thereof and pharmaceutical use thereof” (SANOFI, priority 2012, dated 2023):

Molecular target: T1, recombinant Vps34 (Homo sapiens, UniProt Q8NEB9)
T1 construct: purchased Invitrogen PV5126
Assay: Phosphorylation of phosphatidylinositol (PI) by Vps34 in vitro, ADP detected by TR-FRET (HTRF Transcreener ADP)
Assay type: biochemical
Details: 10 μM ATP, 55 μg/ml PI, approximately 3 nM Vps34, 1 hour at ambient temperature; absolute IC50, mean of two independent experiments; read-out: IC50 activity range

T1 sequence (Q8NEB9 whole entry): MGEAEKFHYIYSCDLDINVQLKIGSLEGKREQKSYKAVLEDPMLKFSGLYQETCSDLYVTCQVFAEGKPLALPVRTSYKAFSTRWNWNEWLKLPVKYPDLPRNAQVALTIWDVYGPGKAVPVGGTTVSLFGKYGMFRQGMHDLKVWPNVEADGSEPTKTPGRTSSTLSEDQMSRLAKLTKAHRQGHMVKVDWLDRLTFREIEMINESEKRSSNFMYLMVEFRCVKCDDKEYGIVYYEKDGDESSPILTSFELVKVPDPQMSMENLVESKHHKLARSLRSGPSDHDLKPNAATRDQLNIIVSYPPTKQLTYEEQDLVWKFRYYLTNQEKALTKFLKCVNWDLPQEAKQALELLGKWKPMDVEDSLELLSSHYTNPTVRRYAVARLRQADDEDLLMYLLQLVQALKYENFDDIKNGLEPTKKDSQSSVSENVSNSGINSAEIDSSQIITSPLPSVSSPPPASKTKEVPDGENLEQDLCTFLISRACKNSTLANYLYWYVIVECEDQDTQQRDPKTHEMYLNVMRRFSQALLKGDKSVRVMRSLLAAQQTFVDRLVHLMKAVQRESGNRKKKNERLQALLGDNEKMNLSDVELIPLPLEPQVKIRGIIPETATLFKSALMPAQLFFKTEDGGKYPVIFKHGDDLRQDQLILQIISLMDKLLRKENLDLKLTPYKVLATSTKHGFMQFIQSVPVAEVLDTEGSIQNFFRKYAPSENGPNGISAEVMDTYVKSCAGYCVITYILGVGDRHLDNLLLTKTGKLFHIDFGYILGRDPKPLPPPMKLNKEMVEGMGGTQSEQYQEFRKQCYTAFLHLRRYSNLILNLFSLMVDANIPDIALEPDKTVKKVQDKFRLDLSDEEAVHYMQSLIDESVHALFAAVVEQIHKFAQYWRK

| IC50 [nM] | SMILES |
| --- | --- |
| < 10 | C[C@@H]1COCCN1c1nc2n(c(=O)c1F)CC[C@@H](C(F)(F)F)N2Cc1cscn1 [Example 69, (S)-3-Fluoro-2-((R)-3-methylmorpholin-4-yl)-9-thiazol-4-ylmethyl-8-trifluoromethyl-6,7,8,9-tetrahydro-pyrimido[1,2-a]-pyrimidin-4-one] |
| < 10 | C[C@@H]1COCCN1c1cc(=O)n2c(n1)N(Cc1nc(C(F)(F)F)no1)[C@H](C(F)(F)F)CC2 [Example 292, (S)-2-((R)-3-Methyl-morpholin-4-yl)-8-trifluoromethyl-9-(3-trifluoromethyl-[1,2,4]oxadiazol-5-yl-methyl)-6,7,8,9-tetrahydro-pyrimido[1,2-a]-pyrimidin-4-one] |
| < 10 | C[C@@H]1COCCN1c1cc(=O)n2c(n1)N(CC1(C3CC3)CCO1)[C@H](C(F)(F)F)CC2 (single isomer, unassigned) [Example 308] |
| 10 to 100 | O=c1cc(N2CC3CCC(C2)O3)nc2n1CC[C@@H](C(F)(F)F)N2Cc1cnc(Cl)s1 [Example 165, (S)-9-(2-Chloro-thiazol-5-ylmethyl)-2-(8-oxa-3-aza-bicyclo[3.2.1]oct-3-yl)-8-trifluoromethyl-6,7,8,9-tetrahydro-pyrimido[1,2-a]-pyrimidin-4-one] |
| < 10 | CON(C)C(=O)CN1c2nc(N3CCOC[C@H]3C)c(F)c(=O)n2CC[C@H]1C(F)(F)F [Example 23, 2-[(S)-7-Fluoro-8-((R)-3-methylmorpholin-4-yl)-6-oxo-2-trifluoromethyl-3,4-dihydro-2H,6H-pyrimido[1,2-a]-pyrimidin-1-yl]-N-methoxy-N-methyl-acetamide] |
| < 10 | C[C@@H]1COCCN1c1cc(=O)n2c(n1)N(c1ccc(OC(F)F)nc1)[C@H](C(F)(F)F)CC2 [Example 124, (S)-9-(6-Difluoromethoxy-pyridin-3-yl)-2-((R)-3-methylmorpholin-4-yl)-8-trifluoromethyl-6,7,8,9-tetrahydro-pyrimido[1,2-a]-pyrimidin-4-one] |
| < 10 | Cc1noc(CN2c3nc(N4CCOC[C@H]4C)cc(=O)n3CC[C@H]2C(F)(F)F)n1 [Example 17, (S)-2-((R)-3-Methyl-morpholin-4-yl)-9-(3-methyl-[1,2,4]oxadiazol-5-yl-methyl)-8-trifluoromethyl-6,7,8,9-tetrahydro-pyrimido[1,2-a]-pyrimidin-4-one] |
| 10 to 100 | C[C@@H]1COCCN1c1cc(=O)n2c(n1)N(Cc1ccno1)CC[C@@H]2C(F)(F)F [Example 105, (R)-9-Isoxazol-5-yl-methyl-2-((R)-3-methylmorpholin-4-yl)-6-trifluoromethyl-6,7,8,9-tetrahydro-pyrimido[1,2-a]-pyrimidin-4-one] |
| < 10 | C[C@@H]1COCCN1c1nc2n(c(=O)c1F)CC[C@@H](C(F)(F)F)N2CC(=O)c1nccs1 [Example 68, (S)-3-Fluoro-2-((R)-3-methylmorpholin-4-yl)-9-(2-oxo-2-thiazol-2-yl-ethyl)-8-trifluoromethyl-6,7,8,9-tetrahydro-pyrimido[1,2-a]-pyrimidin-4-one] |
| < 10 | CCC(CC)C(=O)CN1c2nc(N3CCOC[C@H]3C)c(F)c(=O)n2CC[C@H]1C(F)(F)F [Example 282, (S)-9-(3-Ethyl-2-oxo-pentyl)-3-fluoro-2-((R)-3-methylmorpholin-4-yl)-8-trifluoromethyl-6,7,8,9-tetrahydro-pyrimido[1,2-a]-pyrimidin-4-one] |
| 10 to 100 | CONC(=O)CN1c2nc(N3CCOC[C@H]3C)cc(=O)n2CC[C@H]1C(F)(F)F [Example 197, N-Methoxy-2-[(S)-8-((R)-3-methyl-morpholin-4-yl)-6-oxo-2-trifluoromethyl-3,4-dihydro-2H,6H-pyrimido[1,2-a]-pyrimidin-1-yl]-acetamide] |
| < 10 | CC(C)CCC(=O)CN1c2nc(N3CCOC[C@H]3C)c(F)c(=O)n2CC[C@H]1C(F)(F)F [Example 279, (S)-3-Fluoro-2-((R)-3-methylmorpholin-4-yl)-9-(5-methyl-2-oxo-hexyl)-8-trifluoromethyl-6,7,8,9-tetrahydro-pyrimido[1,2-a]-pyrimidin-4-one] |
| > 100 | CC(C)C(=O)CN1c2nc(N3CC4CCC(C3)O4)cc(=O)n2CC[C@H]1C(F)(F)F [Example 272, (S)-9-(3-Methyl-2-oxo-butyl)-2-(8-oxa-3-aza-bicyclo[3.2.1]oct-3-yl)-8-trifluoromethyl-6,7,8,9-tetrahydro-pyrimido[1,2-a]-pyrimidin-4-one] |
| 10 to 100 | CC1CN(c2cc(=O)n3c(n2)N(CC(=O)C(C)C)[C@H](C(F)(F)F)CC3)CCO1 (stereo partly drawn) [Example 320, (S)-2-(2-Methyl-morpholin-4-yl)-9-(3-methyl-2-oxobutyl)-8-trifluoromethyl-6,7,8,9-tetrahydropyrimido-[1,2-a]pyrimidin-4-one] |
| 10 to 100 | C[C@@H]1COCCN1c1cc(=O)n2c(n1)N(Cc1cnco1)[C@](C)(C(F)(F)F)C2 [Example 182, (S)-2-Methyl-7-((R)-3-methylmorpholin-4-yl)-1-oxazol-5-ylmethyl-2-trifluoromethyl-2,3-dihydro-1H-imidazo[1,2-a]-pyrimidin-5-one] |
| < 10 | C[C@@H]1COC[C@@H](C)N1c1cc(=O)n2c(n1)N(Cc1ccno1)[C@H](C(F)(F)F)CC2 [Example 9, (S)-2-((3R,5R)-3,5-Dimethylmorpholin-4-yl)-9-isoxazol-5-yl-methyl-8-trifluoromethyl-6,7,8,9-tetrahydro-pyrimido[1,2-a]-pyrimidin-4-one] |

| IC50 [nM] | SMILES |
| --- | --- |
| < 10 | C[C@@H]1COCCN1c1cc(=O)n2c(n1)N(CC(=O)c1nccs1)[C@H](C(F)(F)F)CC2 [Example 242, (S)-2-((R)-3-Methyl-morpholin-4-yl)-9-(2-oxo-2-thiazol-2-yl-ethyl)-8-trifluoromethyl-6,7,8,9-tetrahydro-pyrimido[1,2-a]-pyrimidin-4-one] |
| < 10 | C[C@@H]1COCCN1c1cc(=O)n2c(n1)N(C[C@H](F)c1ccccc1)[C@H](C(F)(F)F)CC2 [Example 295, (S)-9-(2-Fluoro-2-phenylethyl)-2-((R)-3-methylmorpholin-4-yl)-8-trifluoromethyl-6,7,8,9-tetrahydro-pyrimido[1,2-a]-pyrimidin-4-one] |
| 10 to 100 | C[C@@H]1COCCN1c1nc2n(c(=O)c1F)CCC(C)(C)N2Cc1ccon1 [Example 73, 3-Fluoro-9-isoxazol-3-ylmethyl-8,8-dimethyl-2-((R)-3-methyl-morpholin-4-yl)-6,7,8,9-tetrahydro-pyrimido[1,2-a]-pyrimidin-4-one] |
| < 10 | C[C@@H]1COCCN1c1cc(=O)n2c(n1)N(CC(=O)c1ccnc(Cl)c1)[C@H](C(F)(F)F)CC2 [Example 10, (S)-9-[2-(2-Chloro-pyridin-4-yl)-2-oxo-ethyl]-2-((R)-3-methyl-morpholin-4-yl)-8-trifluoromethyl-6,7,8,9-tetrahydro-pyrimido[1,2-a]-pyrimidin-4-one] |
| < 10 | C[C@@H]1COCCN1c1nc2n(c(=O)c1F)CC[C@@H](C(F)(F)F)N2Cc1cnco1 [Example 111, (S)-3-Fluoro-2-((R)-3-methylmorpholin-4-yl)-9-oxazol-5-ylmethyl-8-trifluoromethyl-6,7,8,9-tetrahydro-pyrimido[1,2-a]-pyrimidin-4-one] |
| < 10 | CCC(C)N1c2nc(N3CCOC[C@H]3C)cc(=O)n2CC[C@H]1C(F)(F)F (single isomer, unassigned) [Example 284] |
| 10 to 100 | CC1CN(c2cc(=O)n3c(n2)N(CC(=O)c2ccccn2)[C@H](C(F)(F)F)CC3)CCO1 (single isomer, unassigned) [Example 174] |
| < 10 | C[C@@H]1COCCN1c1nc2n(c(=O)c1F)CC[C@@H](C(F)(F)F)N2Cc1cncc(F)c1 [Example 57, (S)-3-Fluoro-9-(5-fluoropyridin-3-yl-methyl)-2-((R)-3-methylmorpholin-4-yl)-8-trifluoromethyl-6,7,8,9-tetrahydro-pyrimido[1,2-a]-pyrimidin-4-one] |
| < 10 | CC(C)c1nc(CN2c3nc(N4CCOC[C@H]4C)c(F)c(=O)n3CC[C@H]2C(F)(F)F)no1 [Example 246, (S)-3-Fluoro-9-(5-isopropyl-[1,2,4]oxadiazol-3-yl-methyl)-2-((R)-3-methylmorpholin-4-yl)-8-trifluoromethyl-6,7,8,9-tetrahydro-pyrimido[1,2-a]-pyrimidin-4-one] |
| 10 to 100 | C[C@@H]1COCCN1c1cc(=O)n2c(n1)N(CC(=O)Nc1ccccc1)[C@H](C(F)(F)F)CC2 [Example 236, 2-[(S)-8-((R)-3-Methyl-morpholin-4-yl)-6-oxo-2-trifluoromethyl-3,4-dihydro-2H,6H-pyrimido[1,2-a]-pyrimidin-1-yl]-N-phenyl-acetamide] |
| < 10 | C[C@@H]1COCCN1c1nc2n(c(=O)c1F)CC[C@@H](C(F)(F)F)N2Cc1ccon1 [Example 296, (S)-3-Fluoro-9-isoxazol-3-ylmethyl-2-((R)-3-methyl-morpholin-4-yl)-8-trifluoromethyl-6,7,8,9-tetrahydro-pyrimido[1,2-a]-pyrimidin-4-one] |
| < 10 | CC(C)Oc1ccc(N2c3nc(N4CCOC[C@H]4C)cc(=O)n3CC[C@H]2C(F)(F)F)cn1 [Example 85, (S)-9-(6-Isopropoxy-pyridin-3-yl)-2-((R)-3-methylmorpholin-4-yl)-8-trifluoromethyl-6,7,8,9-tetrahydro-pyrimido[1,2-a]-pyrimidin-4-one] |
| < 10 | C[C@@H]1COCCN1c1cc(=O)n2c(n1)N(Cc1ccon1)[C@H](C(F)(F)F)CC2 [Example 33, (S)-9-Isoxazol-3-yl-methyl-2-((R)-3-methylmorpholin-4-yl)-8-trifluoromethyl-6,7,8,9-tetrahydro-pyrimido[1,2-a]-pyrimidin-4-one] |
| < 10 | C[C@@H]1COCCN1c1cc(=O)n2c(n1)N(Cc1cscn1)[C@H](C(F)(F)F)CC2 [Example 78, (S)-2-((R)-3-Methyl-morpholin-4-yl)-9-thiazol-4-ylmethyl-8-trifluoromethyl-6,7,8,9-tetrahydro-pyrimido[1,2-a]-pyrimidin-4-one] |
| < 10 | COc1cc(N2CC[C@H](C(F)(F)F)n3c2nc(N2CCOC[C@H]2C)c(F)c3=O)ccn1 [Example 119, (R)-3-Fluoro-9-(2-methoxypyridin-4-yl)-2-((R)-3-methyl-morpholin-4-yl)-6-trifluoromethyl-6,7,8,9-tetrahydro-pyrimido[1,2-a]-pyrimidin-4-one] |
